# From US4436751A, “Nitrobenzyl monates antibacterial compounds” (Beecham Group Limited, priority 1980, dated 1984)
# Read-outs that look alike come from different tables or passages of the source.
# What was measured:
# Format in all cases: cell-based
# bacteria = test: Antibacterial activity (summary); settings: in words
# Experimental: The values were determined using a two fold serial dilutions in Diagnostic Sensitivity Test Agar with an inoculum of 10^4 organisms and incubation for 18 hours at 37° C.
# (§1) The values were determined by serial dilutions in nutrient agar with 5% chocolated horse blood after incubations for 18 hours at 37° C.
# Strep. 641848-C = test: Human bacteria MIC, nutrient agar with chocolated horse blood (Table 3)
# Experimental: as §1
# [1] = tested on: Treponema hyodysenteriae B10; test: MIC against Treponema hyodysenteriae, horse blood agar (Table 4); settings: Brachyspira hyodysenteriae, 48 h; strain B10; 2 days 37° C. anaerobic; read-out: Minimum Inhibitory Concentration (MIC), inhibition of β-haemolysis
# Experimental: (§2) The value were obtained by the following method: The compound was incorporated in horse blood agar, inoculated (multi-point)with 0.001 ml of a 3 day growth of the test organism from base of a blood slope (+1 ml foetal calf serum) and incubated at 37° C. for 2 days under anaerobic conditions. The MIC was taken as the lowest concentration to inhibit β-haemolysis.
# [2] = tested on: Treponema hyodysenteriae P23; test: as above; settings: Brachyspira hyodysenteriae, 48 h; strain P23; 2 days 37° C. anaerobic; read-out: Minimum Inhibitory Concentration (MIC), inhibition of β-haemolysis
# Experimental: as §2
# [3] = tested on: Treponema hyodysenteriae S77/2; test: as above; settings: Brachyspira hyodysenteriae, 48 h; strain S77/2; 2 days 37° C. anaerobic; read-out: Minimum Inhibitory Concentration (MIC), inhibition of β-haemolysis
# Experimental: as §2
# [4] = tested on: Treponema hyodysenteriae Navis; test: as above; settings: Brachyspira hyodysenteriae, 48 h; strain Navis; 2 days 37° C. anaerobic; read-out: Minimum Inhibitory Concentration (MIC), inhibition of β-haemolysis
# Experimental: as §2
# [5] = tested on: Treponema hyodysenteriae S77/10; test: as above; settings: Brachyspira hyodysenteriae, 48 h; strain S77/10; 2 days 37° C. anaerobic; read-out: Minimum Inhibitory Concentration (MIC), inhibition of β-haemolysis
# Experimental: as §2
# M1 -suiphneumoniae = test: Anti-mycoplasmal activity relative to O-nitrobenzyl monate A
# mycoplasma organisms = test: Anti-mycoplasmal activity (summary); settings: in words
# Experimental: The values were determines in Friis broth solidified with 0.9% agarose. The inoculum was 10^3 to 10^5 C.F.U. and the MIC's were recorded after 6 days incubation at 37° C.
# [6] = tested on: Haemophilus influenzae Wy21; test: Human bacteria MIC, nutrient agar with chocolated horse blood (Table 3); settings: nutrient agar 5% chocolated horse blood, 18 hours 37° C.
# Experimental: as §1
# [7] = Strep. 641848-C, nutrient agar 5% chocolated horse blood, 18 hours 37° C., read-out: MIC
SMILES,MIC (Strep. 641848-C; 18 h) [µg/mL],MIC (Strep. 641848-C; [7]) [µg/mL],MIC [6] [µg/mL],also measured
"C/C(=C\C(=O)OCc1ccc([N+](=O)[O-])cc1)CC1OCC(CC2OC2C(C)C(C)O)C(O)C1O (stereo not shown) [Example 1, p-nitrobenzyl monate A]",0.25,,,antibacterial activity as compared to o-nitrobenzyl monate A (bacteria): outstanding antibacterial activity; MIC [1]: 2.5 µg/mL; MIC [2]: 2.5 µg/mL; MIC [3]: 2.5 µg/mL; MIC [4]: 2.5 µg/mL; MIC [5]: 2.5 µg/mL
"C/C(=C\C(=O)OCc1cccc([N+](=O)[O-])c1)CC1OCC(CC2OC2C(C)C(C)O)C(O)C1O (stereo not shown) [Example 2, m-nitrobenzyl monate A]",,,,times more active than O-nitrobenzyl monate A (M1 -suiphneumoniae): approximately 20 times; anti-mycoplasmal activity (mycoplasma organisms): outstanding anti-mycoplasmal activity
"C/C(=C\C(=O)OC(C)c1cccc([N+](=O)[O-])c1)CC1OCC(CC2OC2C(C)C(C)O)C(O)C1O (stereo not shown) [Example 3, 1-(m-nitrophenyl)ethyl monate A]",,2.5,,
"C/C(=C\C(=O)OC(C)c1ccc([N+](=O)[O-])cc1)CC1OCC(CC2OC2C(C)C(C)O)C(O)C1O (stereo not shown) [Example 4, 1-(p-nitrophenyl)ethyl monate A]",,1,,
"C/C(=C\C(=O)OCc1cccc([N+](=O)[O-])c1)CC1OCC(C/C=C/C(C)C(C)O)C(O)C1O (stereo not shown) [Example 5, m-nitrobenzyl monate C]",5,,,
"C/C(=C\C(=O)OCc1cc([N+](=O)[O-])cc([N+](=O)[O-])c1)CC1OCC(CC2OC2C(C)C(C)O)C(O)C1O (stereo not shown) [Example 6, 3,5-dinitrobenzyl monate A]",0.5,,0.5,
"C/C(=C\C(=O)OCc1cc([N+](=O)[O-])cc([N+](=O)[O-])c1C)CC1OCC(CC2OC2C(C)C(C)O)C(O)C1O (stereo not shown) [Example 7, 3,5-dinitro-2-methylbenzyl monate A]",1,,1,
"C/C(=C\C(=O)OCc1cccc([N+](=O)[O-])c1C)CC1OCC(CC2OC2C(C)C(C)O)C(O)C1O (stereo not shown) [Example 8, 2-methyl-3-nitrobenzyl monate A]",,0.5,,
"C/C(=C\C(=O)OCc1ccc([N+](=O)[O-])c([N+](=O)[O-])c1)CC1OCC(CC2OC2C(C)C(C)O)C(O)C1O (stereo not shown) [Example 9, 3,4-dinitrobenzyl monate A]",2.5,,0.25,
"C/C(=C\C(=O)OCc1ccc([N+](=O)[O-])cc1[N+](=O)[O-])CC1OCC(CC2OC2C(C)C(C)O)C(O)C1O (stereo not shown) [Example 10, 2,4-dinitrobenzyl monate A]",2.5,,0.5,
"C/C(=C\C(=O)OCc1ccc([N+](=O)[O-])cc1Cl)CC1OCC(CC2OC2C(C)C(C)O)C(O)C1O (stereo not shown) [Example 11, 2-chloro-4-nitrobenzyl monate A]",,1,,
